In US20210386721A1, “SUBSTITUTED PHENYLPROPENYL PYRIDINE DERIVATIVES, THEIR PREPARATION AND PHARMACEUTICAL APPLICATIONS” (SHANGHAI HAIYAN PHARMACEUTICAL TECHNOLOGY CO., LTD., priority 2019, published 2021):

Legend:
[1] = tested on: Jurkat T(PD1 Luc-)/CHOK1(PDL-1); assay: Jurkat T(PD1 Luc-)/CHOK1(PDL-1) cell experiment (luciferase reporter); format: cell-based; details: CHO/PD-L1-OKT3 cells co-cultured with Jurkat/PD1-NFAT-Luc cells for 6 hours; Bio-Glo luciferase signal
Method: Assay 2 Jurkat T(PD1 Luc-)/CHOK1(PDL-1) Cell Experiment
G418, Sangon Biotech #A100859-0001, Cat Number G108BA0003, 5 ml of deionized water being added into each bottle, store at 4° C.
CHO/PD-L1-OKT3 cells (constructed by referring to Promega's PD-1/PD-L1 Blockade Bioassays system) cultured in F-12K medium (containing 10% FBS, 800 ug/ml G418, 400 ug/ml D Hygromycin B) were planted into a 96-well plate at 2×10^4 per well, and incubated for 24 hours at 37° C. and 5% CO2. part of the medium was removed, and the test compound dissolved in DMSO with a final concentration of 1 uM was added, and DMSO at the same concentration was added into the control cells. Jurkat/PD1-NFAT-Luc cells (constructed by referring to Promega's PD-1/PD-L1 Blockade Bioassays system) were added at 5×10^5 per well at the same time, and cultured for 6 hours. The corresponding luciferase signal was detected by Bio-Glo™ (Promega, G7940) reagent. The EC50 of each compound to be tested was calculated through the non-linear regression of XLfit software.

PD-1/PD-L1 = biological target: T1, PD-1/PD-L1 (Homo sapiens, UniProt Q9NZQ7); assay: PD-1/PD-L1 binding assay (HTRF, PPI-HTRF); details: HTRF PD1/PD-L1 binding assay kit; 10 nM Tag1-PD-L1; 25° C.
T1 construct: purchased Cisbio 63ADK000CPDPEB
T1 sequence (Q9NZQ7 19-238 limits assumed): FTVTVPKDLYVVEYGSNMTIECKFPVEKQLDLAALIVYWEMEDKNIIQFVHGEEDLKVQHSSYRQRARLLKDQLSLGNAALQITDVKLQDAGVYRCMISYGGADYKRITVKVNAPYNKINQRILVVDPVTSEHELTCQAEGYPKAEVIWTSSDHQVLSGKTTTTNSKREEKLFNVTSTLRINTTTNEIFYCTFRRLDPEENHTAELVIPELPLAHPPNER
Method: Assay 1 PD-1/PD-L1 Binding Assay
DMSO is from Sigma, Cat No: D5879; 384-well small volume plate (white) is from Greiner, Cat No: 784075; Anti-PD1 blocking antibody (IC50: 10 nM) is from Cisbio, Cat No: 64CUS000C-1a; Anti-PDL1 blocking antibody (IC50: 0.3 nM) is from Cisbio, Cat No: 64CUS000C-1b; HTRF PD1/PD-L1 binding assay kit is from Cisbio, Cat No: 63ADK000CPDPEB.
1. Prepare the compound to be tested at 2x concentration into 1× reaction buffer containing 4% DMSO;
2. Tag1-PD-L1 protein and Tag2-PD1 protein were prepared in 1× reaction buffer at concentrations of […] and 10 nM, respectively. The final reaction concentration of the experiment was 10 nM Tag1-PD-L1 and 2 nM […];
3. anti-Tag1-Eu3+ antibody is prepared in 1x concentration detection buffer at a ratio of 1:100;
4. anti-Tag2-XL665 antibody is prepared in 1x concentration detection buffer at a ratio of 1:25; Experimental steps
1. 5 μL of compounds to be tested (2×) was added;
2. 2.5 ul Tag1-PD-L1 protein and 2.5 ul Tag2-PD1 protein were added respectively, and the total reaction system is 10 ul, and reacted at 25° C. for 15 minutes;
3. 5 ul anti-Tag1-Eu3+ antibody and 5 ul anti-Tag2-XL665 antibody were added respectively, and reacted at 25° C. for 16 hours;
4. The fluorescence microplate reader HTRF reading program was used to read two readings at 665 nm and 620 nm, the ratio of the two wavelengths was used to judge the activity of the compound, and the IC50 of the compound to be tested is calculated by XLFIT5.0 (IDBS).

Row | Structure (SMILES) | IC50 (PD-1/PD-L1) [nM] | EC50 [1] [nM]
1 | COc1cc(/C=C/c2cccc(-c3cccc(-c4nc5cc(CNCCO)cc(C#N)c5o4)c3C)c2C)c(C(F)(F)F)cc1CN1CCCC[C@H]1C(=O)O [Z-40] | 1 | 108
2 | COc1cc(/C=C/c2cccc(-c3cccc(NC(=O)c4nc5c(n4C)CCN(CCO)C5)c3Cl)c2C)c(C(F)(F)F)cc1CN1CCCC[C@H]1C(=O)O [Z-113, (S, E)-1-(4-(2-(2′-chloro-3′-(5-(2-hydroxyethyl)-1-methyl-4,5,6,7-tetrahydro-1H-imidazo [4,5-c]pyridine-2-carboxamido)-2-methyl-[1,1′-biphenyl]-3-yl)vinyl)-2-methoxy-5-(trifluoromethyl)benzyl) piperidine-2-carboxylic Acid] | 1 | 66
3 | CCOC(=O)[C@@H]1CCN(Cc2cc(C#N)c3oc(-c4cccc(-c5cccc(/C=C/c6cc(OC)c(CN7CC[C@@H](O)C7)cc6C(F)(F)F)c5C)c4C)nc3c2)C1 [Z-45] |  | 70
4 | Cc1cc(/C=C/c2nccc(-c3cccc(-c4nc5cc(CN6CCC(C(=O)O)C6)cc(Cl)c5o4)c3C)c2C#N)c(C(F)(F)F)cc1CN1CC[C@@H](O)C1 (some centres unmarked) [Z-48] |  | 70
5 | COc1cc(/C=C/c2cccc(-c3cccc(NC(=O)c4cc(OC)c(CN5CC[C@@H](O)C5)cn4)c3C)c2C)c(C(F)(F)F)cc1CN1CCC(C(=O)NS(C)(=O)=O)C1 (some centres unmarked) [Z-139] |  | 7
6 | COc1cc(/C=C/c2cccc(-c3cccc(-c4cnc(CNC[C@@H]5CCC(=O)N5)c(OC)n4)c3Cl)c2C)c(C(F)(F)F)cc1CN1CC[C@@H](C(=O)O)C1 [Z-58] |  | 78
7 | Cc1cc(/C=C/c2nccc(-c3cccc(NC(=O)c4ccc(CNCCO)cn4)c3C)c2C#N)c(F)cc1CNCCO [Z-4, (E)-N-(3-(3-cyano-2-(2-fluoro-4-(((2-hydroxyethyl)amino)methyl)-5-methylstyryl)pyridin-4-yl)-2-methylphenyl)-5-(((2-hydroxyethyl)amino)methyl)picolinamide] | < 1 | 
8 | Cc1c(NC(=O)c2ccc(CNCCO)cn2)cccc1-c1ccnc(/C=C/c2ccc3c(c2)CCN(CC(=O)O)C3)c1C#N [Z-3, (E)-2-(6-(2-(3-cyano-4-(3-(5-(((2-hydroxyethyl)amino)methyl)picolinamido)-2-methylphenyl)pyridin-2-yl)vinyl)-3,4-dihydroisoquinolin-2(1H)-yl)acetic Acid] | 9 | 
9 | Cc1c(NC(=O)c2ccc(CNCCO)cn2)cccc1-c1ccnc(/C=C/c2ccc3c(c2)CCN(CCO)C3)c1C#N [Z-63] | 32 | 
10 | Cc1cc(/C=C/c2nccc(-c3cccc(NC(=O)c4ccc(CN5CC[C@@H](O)C5)cn4)c3C)c2C#N)c(Cl)cc1CN1CC2(CC(C(=O)O)C2)C1 [Z-78, (R,E)-2-(5-chloro-4-(2-(3-cyano-4-(3-(5-((3-hydroxypyrrolidin-1-yl)methyl)picolinamido)-2-methylphenyl)pyridin-2-yl)vinyl)-2-methylbenzyl)-2-azaspiro[3.3]heptane-6-carboxylic Acid] | 13 | 
11 | COc1cc(/C=C/c2nccc(-c3cccc(-c4nc5cc(CN6CC[C@@H](C(=O)O)C6)cc(C#N)c5o4)c3C)c2C#N)c(C(F)(F)F)cc1CN1CC[C@@H](O)C1 [Z-50] | 1 | 
12 | Cc1cc(/C=C/c2nccc(-c3cccc(NC(=O)c4nc5c(n4C)CCN(C4CCOCC4)C5)c3C)c2C#N)c(Cl)cc1CN1CCCC[C@H]1C(=O)O [Z-73, (S, E)-1-(5-chloro-4-(2-(3-cyano-4-(2-methyl-3-(l-methyl-5-(tetrahydro-2H-pyran-4-yl)-4,5,6,7-tetrahydro-1H-imidazo[4,5-c]pyridine-2-carboxamido)phenyl)pyridin-2-yl)vinyl)-2-methylbenzyl) piperidine-2-carboxylic Acid] | 2 | 

The next lines start with results.

Row | IC50 (PD-1/PD-L1) [nM] | Structure (SMILES) | EC50 [1] [nM]
13 | 2 | COc1cc(/C=C/c2cccc(-c3cccc(-c4nc5cc(CN6CC[C@@H](O)C6)cc(C#N)c5o4)c3C)c2C)c(C(F)(F)F)cc1CN1CCC[C@H]1C(=O)O [Z-36, (4-((E)-2-(3′-(7-cyano-5-(((R)-3-hydroxypyrrolidin-1-yl)methyl)benzo[d]oxazol-2-yl)-2,2′-dimethyl-[1,1′-biphenyl]-3-yl)vinyl)-2-methoxy-5-(trifluoromethyl)benzyl)-L-proline] | 50
14 | 1 | COc1cc(/C=C/c2cccc(-c3cccc(NC(=O)c4ccc(CN5CC[C@@H](O)C5)cn4)c3C)c2C)c(C(F)(F)F)cc1CN1CCCC(C(=O)O)C1 (some centres unmarked) [Z-106] | 20
15 | 1 | COc1cc(/C=C/c2nccc(-c3cccc(NC(=O)c4ccc(CN5CC[C@@H](O)C5)cn4)c3C)c2C#N)c(C(F)(F)F)cc1CN1CC[C@@H](C(=O)O)C1 [Z-74] | 51
16 | < 1 | COc1cc(/C=C/c2cccc(-c3cccc(NC(=O)c4ccc(CN5CC[C@@H](O)C5)cn4)c3F)c2Cl)c(C(F)(F)F)cc1CN1CC[C@@H](C(=O)O)C1 [Z-96] | 10
17 | 1 | COc1cc(/C=C/c2cccc(-c3cccc(NC(=O)c4cc(OC)c(CN5CC[C@@H](O)C5)cn4)c3C)c2C)c(C(F)(F)F)cc1CN1CCC(C(=O)O)CC1 [Z-122] | 18
18 | ≤ 1 | CNc1cc(C(=O)Nc2cccc(-c3cccc(/C=C/c4cc(OC)c(CN5CCC(C(=O)O)C5)cc4C(F)(F)F)c3C)c2C)ncc1CN1CC[C@@H](O)C1 (some centres unmarked) [Z-141] | 74
19 | 1 | COc1cc(/C=C/c2cccc(-c3cccc(-c4nc5cc(CN6CCC[C@H]6C(=O)O)cc(C#N)c5o4)c3C)c2C)c(C(F)(F)F)cc1CN1CC[C@@H](O)C1 [Z-39] | 
20 | 1 | COc1cc(/C=C/c2cccc(-c3cccc(NC(=O)c4nc5c(n4C)CCN(C)C5)c3C)c2C)c(C(F)(F)F)cc1CN1CC[C@@H](C(=O)O)C1 [Z-126, (R,E)-1-(4-(2-(3′-(1,5-dimethyl-4,5,6,7-tetrahydro-1H-imidazo[4,5-c]pyridine-2-carboxamido)-2,2′-dimethyl-[1,1′-biphenyl]-3-yl)vinyl)-2-methoxy-5-(trifluoromethyl)benzyl)pyrrolidine-3-carboxylic Acid] | 
21 | 1 | COc1cc(/C=C/c2cccc(-c3cccc(-c4nc5cc(CN6CC[C@@H](O)C6)ccc5o4)c3C)c2C)c(C(F)(F)F)cc1CN1CC[C@@H](C(=O)O)C1 [Z-16] | 
22 | 2 | COc1cc(/C=C/c2nccc(-c3cccc(Nc4nccc5cc(CN6CC[C@@H](O)C6)cnc45)c3C)c2C#N)c(C(F)(F)F)cc1CN1CC[C@@H](C(=O)O)C1 [Z-13] | 
23 | 1 | COc1cc(/C=C/c2cccc(-c3cccc(NC(=O)c4ccc(CN5CC[C@@H](O)C5)cn4)c3C#N)c2Cl)c(C(F)(F)F)cc1CN1CC[C@@H](C(=O)O)C1 [Z-104] | 
24 | 3 | COc1cc(/C=C/c2cccc(-c3cccc(OC4CCc5cc(CN6CC[C@@H](O)C6)ccc54)c3Cl)c2C)c(C(F)(F)F)cc1CN1CC[C@@H](C(=O)O)C1 (stereo partly drawn) [Z-62, (3R)-1-(4-((E)-2-(2′-chloro-3′-((5-(((R)-3-hydroxypyrrolidin-1-yl)methyl)-2,3-dihydro-1H-inden-1-yl)oxy)-2-methyl-[1,1′-biphenyl]-3-yl)vinyl)-2-methoxy-5-(trifluoromethyl)benzyl)pyrrolidine-3-carboxylic Acid] | 
25 | 1 | COc1cc(/C=C/c2cccc(-c3cccc(NC(=O)c4ccc(CN5CC[C@@H](O)C5)cn4)c3F)c2F)c(C(F)(F)F)cc1CN1CC[C@@H](C(=O)O)C1 [Z-100] | 
26 | 1 | COc1cc(C(=O)Nc2cccc(-c3cccc(/C=C/c4cc(C)c(CN5CC[C@@H](C(=O)O)C5)cc4C(F)(F)F)c3C)c2C)ncc1CN1CC[C@@H](O)C1 [Z-127] | 
27 | 3 | COc1cc(/C=C/c2cccc(-c3cccc(Nc4nccc5cc(CN6CC[C@@H](O)C6)c(C(F)(F)F)nc45)c3C)c2C)c(C(F)(F)F)cc1CN1CC[C@@H](C(=O)O)C1 [Z-10, (R)-1-(4-((E)-2-(3′-((3-(((R)-3-hydroxypyrrolidin-1-yl)methyl)-2-(trifluoromethyl)-1,7-naphthyridin-8-yl)amino)-2,2′-dimethyl-[1,1′-biphenyl]-3-yl)vinyl)-2-methoxy-5-(trifluoromethyl)benzyl)pyrrolidine-3-carboxylic Acid] | 
